In general, IC50 refers to the concentration that gives 50% inhibition. Lower therefore signals inhibition by little substance. As usually defined, the efflux ratio is the permeability from basolateral to apical divided by that in the opposite direction, in the common usage. As usually defined, the EC50 is the concentration needed to bring the measured effect to its halfway point. Read a high EC50 as a need for much substance.

In one data set the target is PARP1 (Homo sapiens, UniProt P09874). Kind of data set: biochemical.
PARP1, sequence (P09874 whole entry): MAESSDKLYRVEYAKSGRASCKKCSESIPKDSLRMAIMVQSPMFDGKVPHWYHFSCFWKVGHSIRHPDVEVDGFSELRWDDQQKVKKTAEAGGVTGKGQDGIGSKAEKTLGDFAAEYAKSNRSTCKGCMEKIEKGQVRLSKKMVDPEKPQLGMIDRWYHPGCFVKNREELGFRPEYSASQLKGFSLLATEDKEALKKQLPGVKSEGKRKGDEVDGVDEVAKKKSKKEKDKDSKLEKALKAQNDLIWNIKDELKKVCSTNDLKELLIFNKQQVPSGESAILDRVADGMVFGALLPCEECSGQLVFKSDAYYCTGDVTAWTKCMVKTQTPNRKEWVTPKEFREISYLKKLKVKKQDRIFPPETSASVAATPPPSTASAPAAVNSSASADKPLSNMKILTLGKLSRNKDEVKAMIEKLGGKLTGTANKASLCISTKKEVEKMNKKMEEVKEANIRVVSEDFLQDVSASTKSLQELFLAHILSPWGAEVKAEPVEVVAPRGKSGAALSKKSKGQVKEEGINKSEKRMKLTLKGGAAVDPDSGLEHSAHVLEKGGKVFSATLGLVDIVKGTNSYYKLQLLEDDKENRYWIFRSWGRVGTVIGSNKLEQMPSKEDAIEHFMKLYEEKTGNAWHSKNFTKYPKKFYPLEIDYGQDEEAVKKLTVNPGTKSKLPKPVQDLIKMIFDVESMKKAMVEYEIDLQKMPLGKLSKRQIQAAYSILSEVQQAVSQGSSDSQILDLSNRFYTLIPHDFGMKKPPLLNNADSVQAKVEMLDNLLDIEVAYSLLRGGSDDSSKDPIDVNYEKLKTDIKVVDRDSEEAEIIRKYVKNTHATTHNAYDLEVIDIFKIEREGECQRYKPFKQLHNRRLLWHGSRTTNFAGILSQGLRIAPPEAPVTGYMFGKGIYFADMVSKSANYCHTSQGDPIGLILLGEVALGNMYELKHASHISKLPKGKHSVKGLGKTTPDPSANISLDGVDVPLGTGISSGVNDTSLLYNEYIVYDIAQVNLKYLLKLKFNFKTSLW
The next data set concerns the target T1, BCRP (Homo sapiens, UniProt Q9UNQ0).
T1 construct: expressed in transfected cells; host or cells: MDCKII (Madin-Darby canine kidney) cells
T1 sequence (Q9UNQ0 1-655): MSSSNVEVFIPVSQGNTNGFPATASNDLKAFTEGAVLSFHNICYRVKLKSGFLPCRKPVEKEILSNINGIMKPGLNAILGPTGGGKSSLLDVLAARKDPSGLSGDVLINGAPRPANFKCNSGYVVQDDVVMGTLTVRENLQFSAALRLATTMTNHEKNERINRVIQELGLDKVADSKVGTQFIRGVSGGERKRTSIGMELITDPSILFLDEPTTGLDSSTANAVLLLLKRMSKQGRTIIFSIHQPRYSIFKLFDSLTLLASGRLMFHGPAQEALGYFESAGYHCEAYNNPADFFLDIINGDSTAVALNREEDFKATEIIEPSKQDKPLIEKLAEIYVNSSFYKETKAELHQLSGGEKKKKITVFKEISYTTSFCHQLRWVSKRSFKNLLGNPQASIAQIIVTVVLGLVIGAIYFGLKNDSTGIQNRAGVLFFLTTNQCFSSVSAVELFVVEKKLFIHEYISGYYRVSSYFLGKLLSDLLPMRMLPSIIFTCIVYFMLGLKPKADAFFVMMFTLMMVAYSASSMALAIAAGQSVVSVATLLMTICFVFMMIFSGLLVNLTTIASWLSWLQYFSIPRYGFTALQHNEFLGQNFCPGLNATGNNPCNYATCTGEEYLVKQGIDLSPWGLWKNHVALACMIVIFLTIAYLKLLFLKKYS
Kind of data set: In vitro human transporter efflux, MDCKII cells expressing BCRP. The class given is in vitro ADME. Conditions: for efflux ratio at 2 h, 10 μM: pH 7.4, Efflux ratio=Papp(B→A)/Papp(A→B); for Papp A→B at 2 h, 10 μM: pH 7.4, read-out: BCRP Papp AB; for Papp B→A at 2 h, 10 μM: pH 7.4, read-out: BCRP Papp BA. Here is the method:
(§1) Madin-Darby canine kidney (MDCKII) cells expressing either MDR1 or BCRP were seeded onto Corning HTS Transwell® 96-well polycarbonate permeable (0.4 μm pore) supports at a density of 545,000 cells/cm2. Cells were incubated for 4-8 days prior to assay, and monolayer integrity was assessed by measuring transepithelial electrical resistance (TEER). […] The final organic solvent concentration was 0.5% (v/v). Bidirectional (apical-to-basolateral and basolateral-to-apical) flux of the test and reference compounds was determined over a 2-hour incubation at 37° C. and […] with a relative humidity of 95%. At the end of the incubation, samples from the apical and basolateral side were taken and then precipitated with acetonitrile containing internal standard. After centrifugation at 3200×g, supernatants were diluted 1:1 (v/v) with water and subjected to analysis via HPLC-MS/MS.
(§2) The apparent permeability (Papp, units of x 10-6 cm/s) was calculated using the following equation: […]
(§3) Where dQ/dt was the rate of drug transport (pmol/s), A was the surface area of the membrane (0.143 cm^2), and DO was the initial donor concentration (nM or pmol/cm3).
(§4) Efflux ratio=Papp(B→A)/Papp(A→B)
(§5) Where Papp(B→A) is the apparent permeability in the basolateral-to-apical direction, and Papp(A→B) is the apparent permeability in the apical-to-basolateral direction.

Data set [1] concerns MDA-MB-436 (mutated BRCA1) cell lines. The data set can be described thus: Cell growth inhibition assay (CellTiter-Glo cell viability). Conditions: Homo sapiens, 168 h; MDA-MB-436 cells, 7 days, CellTiter Glo 2.0. Type of data set: cell-based. The method, then:
(§6) Cell proliferation was measured through the cell viability assay using DLD-1 BRCA2(−/−) and parental isogenic pair and MDA-MB-436 (mutated BRCA1) cell lines. The CellTiter-Glo (CTG) based cell viability assay is designed to determine the number of viable cells in the culture because of compound effect, by quantifying ATP, which indicates the presence of metabolically active cells.
(§7) DLD-1 BRCA2(−/−) and parental isogenic pair were cultured in RPMI 1640 supplemented with 10% fetal bovine serum (FBS), and MDA-MB-436 cells were cultured in DMEM supplemented with 10% FBS. Both were cultured at 37° C. with […]. Invention compounds were distributed to the 384 well plate (Corning, 3764) using Echo acoustic liquid handler to form a 1:3 serially diluted final concentration with top dose of 10 or 30 μM.
In general terms: ATP-based viability assays read luminescence as a measure of living cells.

Another data set has as its system DLD-1 BRCA2(−/−). The data set is described as above. The class given is cell-based. Particulars: Homo sapiens, DLD-1, 168 h, DLD-1 BRCA2(−/−) cells, 7 days, CellTiter Glo 2.0. Here is the method:
as §6, §7

In a further data set the target is T2, MDR1 (Homo sapiens, UniProt P08183).
T2 construct: expressed in transfected cells; host or cells: MDCKII (Madin-Darby canine kidney) cells
T2 sequence (P08183 whole entry): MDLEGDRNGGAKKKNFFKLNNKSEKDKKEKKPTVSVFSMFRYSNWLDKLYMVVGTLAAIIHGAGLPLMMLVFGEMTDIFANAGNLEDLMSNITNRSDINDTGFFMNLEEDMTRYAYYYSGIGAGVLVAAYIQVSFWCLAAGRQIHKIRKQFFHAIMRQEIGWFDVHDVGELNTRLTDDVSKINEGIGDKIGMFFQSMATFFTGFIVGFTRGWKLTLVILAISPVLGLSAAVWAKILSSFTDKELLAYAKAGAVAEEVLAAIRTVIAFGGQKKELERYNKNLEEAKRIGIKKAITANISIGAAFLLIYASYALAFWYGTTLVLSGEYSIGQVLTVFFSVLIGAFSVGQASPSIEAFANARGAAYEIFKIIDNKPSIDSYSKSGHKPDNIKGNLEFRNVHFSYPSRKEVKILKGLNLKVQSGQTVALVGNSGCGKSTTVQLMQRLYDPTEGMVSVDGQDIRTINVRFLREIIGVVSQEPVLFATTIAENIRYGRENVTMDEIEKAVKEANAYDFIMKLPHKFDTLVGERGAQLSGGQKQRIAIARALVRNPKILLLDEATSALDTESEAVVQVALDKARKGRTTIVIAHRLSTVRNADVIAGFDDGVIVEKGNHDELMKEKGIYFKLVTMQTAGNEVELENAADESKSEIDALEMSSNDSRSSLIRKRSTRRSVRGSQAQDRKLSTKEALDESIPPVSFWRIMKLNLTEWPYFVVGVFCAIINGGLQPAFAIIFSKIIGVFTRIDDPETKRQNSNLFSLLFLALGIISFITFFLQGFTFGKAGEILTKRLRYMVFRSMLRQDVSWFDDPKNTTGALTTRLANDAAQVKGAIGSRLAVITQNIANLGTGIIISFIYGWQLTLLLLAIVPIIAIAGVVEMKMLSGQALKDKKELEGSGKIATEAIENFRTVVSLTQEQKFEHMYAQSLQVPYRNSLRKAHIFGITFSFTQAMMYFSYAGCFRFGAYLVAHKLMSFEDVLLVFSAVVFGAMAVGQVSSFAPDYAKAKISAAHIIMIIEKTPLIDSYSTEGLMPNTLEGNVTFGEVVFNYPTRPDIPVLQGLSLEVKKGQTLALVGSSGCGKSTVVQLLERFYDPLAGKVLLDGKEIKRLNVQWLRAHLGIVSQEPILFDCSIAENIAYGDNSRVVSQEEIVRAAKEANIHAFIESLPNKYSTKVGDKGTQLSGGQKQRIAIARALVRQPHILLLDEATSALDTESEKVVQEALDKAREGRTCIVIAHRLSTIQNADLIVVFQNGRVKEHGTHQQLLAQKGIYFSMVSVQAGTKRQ
Kind of data set: In vitro human transporter efflux, MDCKII cells expressing MDR1. Type of data set: in vitro ADME. Conditions: for efflux ratio at 2 h, 10 μM: MDCK-MDR1, pH 7.4, Efflux ratio=Papp(B→A)/Papp(A→B); for Papp A→B at 2 h, 10 μM: MDCK-MDR1, pH 7.4, read-out: MDCK-MDR1 Papp AB; for Papp B→A at 2 h, 10 μM: MDCK-MDR1, pH 7.4, read-out: MDCK-MDR1 Papp BA. The method, then: as §1, §2, §3, §4, §5

Data set [2] is described as follows: In vivo determination of rat Kp,uu. Particulars: brain and plasma, 1 mg/kg, male Sprague-Dawley rats, oral gavage, 0.1 mg/mL at 10 mL/kg, Kp*(fraction unbound in brain homogenate/fraction unbound in plasma). Here is the method:
The equilibrium dialysis method was used to investigate the in vitro binding of test articles and reference compounds to plasma proteins. Plasma samples containing 5 μM test article or blank dialysis buffer solution (PBS, pH 7.4) were added to separate chambers of the dialysis wells of the High Throughput equilibrium Dialysis (HTD) device. The dialysis plate was sealed and placed in an incubator at 37° C. with 5% CO2 with shaking at approximately 100 rpm for 6 hours. All experiments were performed in duplicate. Ketoconazole (5 μM) was used as the reference compound. After incubation, the seal was removed, and 50 μL of post-dialysis samples were pipetted from both buffer and plasma chambers into fresh 96well plates. Samples were equimatrilyzed by either addition of blank plasma to buffer samples or the addition of blank buffer to plasma samples. […] The unbound fractions in plasma were calculated using the concentrations of test articles in buffer and plasma samples according to the following equation: […]
The equilibrium dialysis method was used to investigate the in vitro binding of test articles and reference compounds to rodent brain homogenate. […] The unbound fractions in diluted brain homogenate were calculated using the concentrations of test articles in buffer and homogenate samples according to the following equation: […]

Experimental for PARP1: The assay was performed utilizing the following method:
Compounds were dissolved in DMSO an Echo550 liquid handler was utilized to make serial dilations in the desired concentration range in Optiplate-384F plates. 100% DMSO was used for the high (with protein) and low (without protein) control samples. 20 nL of compound or DMSO alone was added to individual assay plate wells.
PARP1 and PARP2 protein were expressed, purified, and diluted in assay buffer containing 50 mM Tris pH 8.0, 0.001% Triton X-100, 10 mM MgCl2, 150 mM NaCl to a final concentration of 20 nM. The PARPi-FL was then added at a final concentration of 3 nM.
The assay plate was centrifuged at 1000 rpm for 1 min and incubated for 4 h at room temperature.
The fluorescent polarization was read using an Envision plate reader using the following settings: • Excitation filter—FITC FP 480-Ex Slot 3 • Emission filter—FITC FP P-pol 535-Em Slot 4 • 2nd Emission filter—FITC FP S-pol 535-Em Slot 3 • Mirror module—FITC FP Dual Enh-Slot 1
XLFit (equation 201) is used to calculate a reported IC50 for each compound.

The compound `Cc1nc2ccc(CN3CCN(c4ccc(C(=O)NCC(F)F)nc4F)CC3)c(F)c2[nH]c1=O` [Example 19] registered an IC50 on PARP1 of 18 nM. Moreover, on BCRP, the efflux ratio at 2 h, 10 μM amounted to 0.73; the Papp A→B at 2 h, 10 μM is 28 ×10⁻⁶ cm/s; the Papp B→A at 2 h, 10 μM is 20.2 ×10⁻⁶ cm/s. Moreover, in data set [1], the EC50 was 2.2 nM. In the data set with DLD-1 BRCA2(−/−), this compound displayed an EC50 of 3.9 nM. In addition, on MDR1, the efflux ratio at 2 h, 10 μM amounted to 0.87; the Papp A→B at 2 h, 10 μM was found to be 20.9 ×10⁻⁶ cm/s; the Papp B→A at 2 h, 10 μM was found to be 18.2 ×10⁻⁶ cm/s.
At PARP1, `Cc1nc2ccc(CN3CCN(c4ccc(C(=O)NC5CC5)nc4F)CC3)c(F)c2[nH]c1=O` [Example 1, N-cyclopropyl-6-fluoro-5-{4-[(5-fluoro-2-methyl-3-oxo-4H-quinoxalin-6-yl)methyl]piperazin-1-yl}pyridine-2-carboxamide] had an IC50 of 4.5 nM. In data set [2], this compound had a Kp uu of 0.37. Also, the efflux ratio at 2 h, 10 μM at BCRP is 0.94; on MDR1, 1.82. Further, the Papp A→B at 2 h, 10 μM on BCRP is 25.7 ×10⁻⁶ cm/s; at MDR1, 16.5 ×10⁻⁶ cm/s. Also, the Papp B→A at 2 h, 10 μM came to 24.1 ×10⁻⁶ cm/s at BCRP and 30 ×10⁻⁶ cm/s at MDR1. In addition, the values for the concentration for a half-maximal effect (EC50) (in data set [1]; with DLD-1 BRCA2(−/−)) were 2.4 nM and 3.7 nM, respectively.

The values above are taken from patent publication US20250171418A1, “PARP1 INHIBITORS AND USES THEREOF” (XinThera, Inc., priority 2022, published 2025).
